From patent US7741283B2, “Compositions and methods for inhibiting cell proliferation” (St. Louis University, priority 2003, dated 2010)
Entries after “also recorded” stand apart in the source; their conditions may differ. Values belong to the compound of their own block, whether it stands above or below them.

Tests used:
[1] = system: cell surface α2M* receptors; settings: 30 μM, reversible; cited from earlier work
LRP-1 = biological target: T1, LRP-1 (Mus musculus, UniProt Q91ZX7); experiment: 125I-α2M* binding to MEF cells at pH 7.4; settings: pH 7.4; read-out: IC50, inhibition of ^125I-α2M* binding to LRP-1
T1 construct: endogenous in cells; host or cells: MEF (mouse embryonic fibroblasts)

Mv1Lu cells [2] = experiment: Internalization and degradation of cell surface-bound 125I-TGF-β1 or 125I-α2M*, Mv1Lu cells; assay type: cell-based, mink; settings: 10 μM, pH 7.4, 1 hr at 37° C.
Method: After 1 hr at 37° C., the medium was collected and precipitated with 10% trichloroacetic acid (TCA). The TCA-soluble radioactive material in the medium represented the cellular degradation products of 125I-TGF-β1 or 125I-α2M*. The cells were then treated with trypsin (5 mg/ml), maintained for 20 min at 0° C. and centrifuged. The radioactivity in the supernate and cell pellets represented cell surface-bound and internalized 125I-TGF-β1 or 125I-α2M*, respectively. The experiments were performed in quadruplicate.
After 2.5 hr, cells were washed, then warmed to 37° C.

acidic pH binding sites [3] = biological target: T2, acidic pH binding sites (Mus musculus, UniProt P14824); experiment: Specific binding of 125I-ligands to MEF cells at acidic pH; settings: MEF cells
T2 sequence (P14824 2-673): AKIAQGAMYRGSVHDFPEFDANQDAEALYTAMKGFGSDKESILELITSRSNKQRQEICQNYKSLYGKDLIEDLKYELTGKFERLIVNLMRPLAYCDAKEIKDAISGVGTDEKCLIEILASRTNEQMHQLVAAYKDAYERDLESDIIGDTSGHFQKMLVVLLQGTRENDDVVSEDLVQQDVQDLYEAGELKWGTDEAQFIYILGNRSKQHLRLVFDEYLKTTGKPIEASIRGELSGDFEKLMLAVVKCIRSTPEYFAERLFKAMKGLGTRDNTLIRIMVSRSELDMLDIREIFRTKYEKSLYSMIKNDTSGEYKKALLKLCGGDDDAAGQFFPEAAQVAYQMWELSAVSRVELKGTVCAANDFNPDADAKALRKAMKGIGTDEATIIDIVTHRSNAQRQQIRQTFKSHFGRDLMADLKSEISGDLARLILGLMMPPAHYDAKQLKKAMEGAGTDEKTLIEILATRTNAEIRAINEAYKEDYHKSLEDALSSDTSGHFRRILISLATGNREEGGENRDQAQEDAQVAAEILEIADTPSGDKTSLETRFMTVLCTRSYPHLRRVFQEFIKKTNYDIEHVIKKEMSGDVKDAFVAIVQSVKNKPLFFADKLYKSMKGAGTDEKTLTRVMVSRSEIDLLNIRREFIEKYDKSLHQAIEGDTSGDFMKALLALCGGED

MEF cells [4] = experiment: Internalization and degradation of cell surface-bound 125I-ligand, MEF cells; assay type: cell-based, mouse; settings: for Cell surface-bound ligand internalized and degraded: MEF
32D/IR/IRS-2 cells = experiment: [methyl-3H] thymidine incorporation, 32D/IR/IRS-2 cells; assay type: cell-based, murine; settings: 32D cells expressing IRS-2 and insulin receptor
PEA-C11 cells [5] = experiment: Cell growth (cell number), PEA-C11 cells; assay type: cell-based, mink; settings: TGF-β1 20 pM, PEA-C11, 4-day
Method: (§1) FIG. 6 depicts the effects of IGFBP-3 and TGF-β1 on DNA synthesis (A), cell growth (B) and PAI-1 expression (C) in Mv1Lu and PEA-C11 cells. (A,B) Cells were incubated with various concentrations of IGFBP-3 (a) or TGF-β1 (b) as indicated. DNA synthesis and cell growth were determined by measuring the [methyl-^3H] thymidine incorporation into cellular DNA after 18 hr incubation (A) and by counting cell number after a 4-day incubation (B), respectively. The [methyl-^3H] thymidine incorporation in cells treated without IGFBP-3 and TGF-β1 (29,170±1,657 and 59,947±7,692 cpm/well for Mv1Lu and PEA-C11 cells, respectively) were taken as 0% inhibition. […] Each data point is the mean±S.D. of quadruplicate determinations. […] Data are representative of eight similar experiments. (C) Cells were incubated with various concentrations of TGF-β1 as indicated. After 2 hr at 37° C., the PAI-1 expression was determined by Northern blot analysis. The expression of glyceraldehyde-3-phosphate dehydrogenase (G3PDH) was used as control. The relative levels of the transcripts were quantified by a Phospholmager. Data are representative of four similar experiments.
(§2) Cells were plated at a density of 1-2×10^4 cells/dish in DMEM containing 1% fetal calf serum. The cell number was counted every day or after a 3-day incubation using a hematocytometer. The assays were performed in quadruplicate.

MEF cells [6] = experiment: [methyl-3H] thymidine incorporation, MEF cells; assay type: cell-based, mouse; settings: TGF-β1 20 pM
Method: (§3) FIG. 7 depicts the effect of TGF-β1 on DNA synthesis (A), cell growth (B) and PAI-1 expression (C) in MEF and PEA-13 cells. (A) Cells were treated with various concentrations of TGF-β1 as indicated. DNA synthesis was determined by measuring [methyl-^3H] thymidine incorporation into cellular DNA. The [methyl-^3H] thymidine incorporation in cells treated without TGF-β1 (100,861±3,720 and 103,262±6,722 cpm/well for MEF and PEA-13 cells, respectively) was taken as 0% inhibition. The negative values of inhibition indicate mitogenic activity. […] Each datapoint is the mean±S.D. of quadruplicate determinations. […] Data are representative of six similar experiments. (B) Cells were treated with various concentrations of TGF-β1 as indicated. The cell number was counted after a 4 day incubation. […] The negative values of the inhibition indicate the growth stimulatory activity. Each datapoint is the mean±S.D. of quadruplicate determinations. […] Data are representative of four similar experiments. (C) Cells were treated with various concentrations of TGF-β1 as indicated. The PAI-1 expression in these cells was determined by Northern blot analysis. The expression of G3PDH was used as control. The relative levels of the transcripts were quantified by a PhosphoImager. Data are representative of four similar experiments. […]

H1299/vector cells [7] = experiment: [methyl-3H] thymidine incorporation, H1299/vector cells; assay type: cell-based, human; settings: various concentrations
LRP-1/TβR-V = LRP-1/TβR-V (Homo sapiens, UniProt Q07954); settings: pH 7.4; read-out: Kd for (high affinity) binding to LRP-1/TβR-V; cited from earlier work
Mv1Lu cells [8] = experiment: [methyl-3H] thymidine incorporation (DNA synthesis), Mv1Lu cells; assay type: cell-based, mink; settings: Mv1Lu
acidic pH binding sites [9] = biological target: acidic pH binding sites (Neogale vison, UniProt A0A8C7BSJ2); experiment: Specific binding of 125I-ligands to Mv1Lu cells at acidic pH; design: species or system mink; settings: Mv1Lu cells; for pH of optimal/maximal binding: EGTA/BAPTA- or GST-RAP-sensitive binding, 0° C.
PEA-13 cells [10] = experiment: [methyl-3H] thymidine incorporation, PEA-13 cells; assay type: cell-based, mouse; settings: TGF-β1 20 pM
Method: as §3

PEA-13 cells [11] = experiment: Cell growth (cell number), PEA-13 cells; assay type: cell-based, mouse; settings: TGF-β1 20 pM
Method: as §3, with “The expression of G3PDH was used as control.” left out, “PhosphoImager.” for “PhosphoImager. Data are representative of four similar experiments.”
(§4) Cells were plated at a density of 1-2×10^4 cells/dish in DMEM containing 1% fetal calf serum. The cell number was counted every day or after a 3-day incubation using a hematocytometer. […]

MEF cells [12] = experiment: Cell growth (cell number), MEF cells; assay type: cell-based, mouse; settings: TGF-β1 20 pM
Method: as §3, with “The expression of G3PDH was used as control.” left out, “PhosphoImager.” for “PhosphoImager. Data are representative of four similar experiments.”
as §4

IRS-2 [13] = experiment: 32P metabolic labeling and immunoprecipitation of IRS-2, DR26 cells; assay type: cell-based, mink
H1299/LRP cells [14] = experiment: Cell growth (cell number), H1299/LRP cells; assay type: cell-based, human; settings: TGF-β1 20 pM or IGFBP-3 1 μg/ml, 3-day
PEA-C11 cells [15] = experiment: [methyl-3H] thymidine incorporation, PEA-C11 cells; assay type: cell-based, mink; settings: TGF-β1 20 pM
H1299/LRP cells [16] = experiment: [methyl-3H] thymidine incorporation, H1299/LRP cells; assay type: cell-based, human; settings: various concentrations
[17] = system: 32D cells expressing vector only; experiment: [methyl-3H] thymidine incorporation, 32D cells transfected with vector only; assay type: cell-based, murine
acidic pH binding sites [18] = biological target: T2, acidic pH binding sites; experiment: Specific binding of 125I-ligands to PEA-13 cells at acidic pH; design: endogenous in cells; host or cells: PEA-13 (LRP-1-deficient mouse embryonic fibroblasts); settings: PEA-13 cells
Mv1Lu cells [19] = experiment: Cell growth (cell number), Mv1Lu cells; assay type: cell-based, mink; settings: TGF-β1 20 pM, 4-day
Method: as §1, §2

IRS-2 [20] = experiment: 32P metabolic labeling and immunoprecipitation of IRS-2, Mv1Lu cells; assay type: cell-based, mink; settings: Mv1Lu; IGFBPs 1 μg/ml; TGF-β1 20 pM
32D/IRS-1 cells = experiment: [methyl-3H] thymidine incorporation, 32D/IRS-1 cells; assay type: cell-based, murine; settings: 32D cells expressing IRS-1
H1299/vector cells [21] = experiment: Cell growth (cell number), H1299/vector cells; assay type: cell-based, human; settings: TGF-β1 20 pM or IGFBP-3 1 μg/ml, 3-day
[22] = system: TβR-V purified from bovine liver plasma membranes; experiment: 125I-IGFBP-3 / 125I-TGF-β1 affinity labeling of purified TβR-V; assay type: binding; settings: DSS, β1^25(41-65) 20 μM, RAP 10-40 μg/ml, α2M* 100 nM, lactoferrin 100 nM
PEA-13 cells [23] = experiment: Internalization and degradation of cell surface-bound 125I-α2M*, PEA-13 cells; assay type: cell-based, mouse; settings: PEA-13, pH 6.0, 1 hr at 37° C.

acidic pH binding sites (Neogale vison, UniProt A0A8C7BSJ2), sequence (A0A8C7BSJ2 entry or part of it): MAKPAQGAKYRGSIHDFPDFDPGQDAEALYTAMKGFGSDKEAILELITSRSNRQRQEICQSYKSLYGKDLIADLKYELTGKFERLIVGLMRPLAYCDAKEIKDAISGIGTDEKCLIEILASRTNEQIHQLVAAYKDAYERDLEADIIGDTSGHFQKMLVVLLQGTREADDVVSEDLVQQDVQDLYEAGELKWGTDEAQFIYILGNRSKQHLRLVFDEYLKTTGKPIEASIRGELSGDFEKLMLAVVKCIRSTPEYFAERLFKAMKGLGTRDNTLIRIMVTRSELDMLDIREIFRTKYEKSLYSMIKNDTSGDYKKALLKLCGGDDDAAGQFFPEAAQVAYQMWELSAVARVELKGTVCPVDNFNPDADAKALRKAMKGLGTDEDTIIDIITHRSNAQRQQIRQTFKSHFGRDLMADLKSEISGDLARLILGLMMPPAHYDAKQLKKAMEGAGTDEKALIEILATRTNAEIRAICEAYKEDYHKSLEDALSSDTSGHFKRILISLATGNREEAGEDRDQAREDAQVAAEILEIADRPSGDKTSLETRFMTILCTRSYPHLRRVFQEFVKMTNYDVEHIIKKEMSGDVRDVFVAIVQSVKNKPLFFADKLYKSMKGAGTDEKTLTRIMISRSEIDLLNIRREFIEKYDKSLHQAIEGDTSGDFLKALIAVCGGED
LRP-1/TβR-V, sequence (Q07954 20-4544): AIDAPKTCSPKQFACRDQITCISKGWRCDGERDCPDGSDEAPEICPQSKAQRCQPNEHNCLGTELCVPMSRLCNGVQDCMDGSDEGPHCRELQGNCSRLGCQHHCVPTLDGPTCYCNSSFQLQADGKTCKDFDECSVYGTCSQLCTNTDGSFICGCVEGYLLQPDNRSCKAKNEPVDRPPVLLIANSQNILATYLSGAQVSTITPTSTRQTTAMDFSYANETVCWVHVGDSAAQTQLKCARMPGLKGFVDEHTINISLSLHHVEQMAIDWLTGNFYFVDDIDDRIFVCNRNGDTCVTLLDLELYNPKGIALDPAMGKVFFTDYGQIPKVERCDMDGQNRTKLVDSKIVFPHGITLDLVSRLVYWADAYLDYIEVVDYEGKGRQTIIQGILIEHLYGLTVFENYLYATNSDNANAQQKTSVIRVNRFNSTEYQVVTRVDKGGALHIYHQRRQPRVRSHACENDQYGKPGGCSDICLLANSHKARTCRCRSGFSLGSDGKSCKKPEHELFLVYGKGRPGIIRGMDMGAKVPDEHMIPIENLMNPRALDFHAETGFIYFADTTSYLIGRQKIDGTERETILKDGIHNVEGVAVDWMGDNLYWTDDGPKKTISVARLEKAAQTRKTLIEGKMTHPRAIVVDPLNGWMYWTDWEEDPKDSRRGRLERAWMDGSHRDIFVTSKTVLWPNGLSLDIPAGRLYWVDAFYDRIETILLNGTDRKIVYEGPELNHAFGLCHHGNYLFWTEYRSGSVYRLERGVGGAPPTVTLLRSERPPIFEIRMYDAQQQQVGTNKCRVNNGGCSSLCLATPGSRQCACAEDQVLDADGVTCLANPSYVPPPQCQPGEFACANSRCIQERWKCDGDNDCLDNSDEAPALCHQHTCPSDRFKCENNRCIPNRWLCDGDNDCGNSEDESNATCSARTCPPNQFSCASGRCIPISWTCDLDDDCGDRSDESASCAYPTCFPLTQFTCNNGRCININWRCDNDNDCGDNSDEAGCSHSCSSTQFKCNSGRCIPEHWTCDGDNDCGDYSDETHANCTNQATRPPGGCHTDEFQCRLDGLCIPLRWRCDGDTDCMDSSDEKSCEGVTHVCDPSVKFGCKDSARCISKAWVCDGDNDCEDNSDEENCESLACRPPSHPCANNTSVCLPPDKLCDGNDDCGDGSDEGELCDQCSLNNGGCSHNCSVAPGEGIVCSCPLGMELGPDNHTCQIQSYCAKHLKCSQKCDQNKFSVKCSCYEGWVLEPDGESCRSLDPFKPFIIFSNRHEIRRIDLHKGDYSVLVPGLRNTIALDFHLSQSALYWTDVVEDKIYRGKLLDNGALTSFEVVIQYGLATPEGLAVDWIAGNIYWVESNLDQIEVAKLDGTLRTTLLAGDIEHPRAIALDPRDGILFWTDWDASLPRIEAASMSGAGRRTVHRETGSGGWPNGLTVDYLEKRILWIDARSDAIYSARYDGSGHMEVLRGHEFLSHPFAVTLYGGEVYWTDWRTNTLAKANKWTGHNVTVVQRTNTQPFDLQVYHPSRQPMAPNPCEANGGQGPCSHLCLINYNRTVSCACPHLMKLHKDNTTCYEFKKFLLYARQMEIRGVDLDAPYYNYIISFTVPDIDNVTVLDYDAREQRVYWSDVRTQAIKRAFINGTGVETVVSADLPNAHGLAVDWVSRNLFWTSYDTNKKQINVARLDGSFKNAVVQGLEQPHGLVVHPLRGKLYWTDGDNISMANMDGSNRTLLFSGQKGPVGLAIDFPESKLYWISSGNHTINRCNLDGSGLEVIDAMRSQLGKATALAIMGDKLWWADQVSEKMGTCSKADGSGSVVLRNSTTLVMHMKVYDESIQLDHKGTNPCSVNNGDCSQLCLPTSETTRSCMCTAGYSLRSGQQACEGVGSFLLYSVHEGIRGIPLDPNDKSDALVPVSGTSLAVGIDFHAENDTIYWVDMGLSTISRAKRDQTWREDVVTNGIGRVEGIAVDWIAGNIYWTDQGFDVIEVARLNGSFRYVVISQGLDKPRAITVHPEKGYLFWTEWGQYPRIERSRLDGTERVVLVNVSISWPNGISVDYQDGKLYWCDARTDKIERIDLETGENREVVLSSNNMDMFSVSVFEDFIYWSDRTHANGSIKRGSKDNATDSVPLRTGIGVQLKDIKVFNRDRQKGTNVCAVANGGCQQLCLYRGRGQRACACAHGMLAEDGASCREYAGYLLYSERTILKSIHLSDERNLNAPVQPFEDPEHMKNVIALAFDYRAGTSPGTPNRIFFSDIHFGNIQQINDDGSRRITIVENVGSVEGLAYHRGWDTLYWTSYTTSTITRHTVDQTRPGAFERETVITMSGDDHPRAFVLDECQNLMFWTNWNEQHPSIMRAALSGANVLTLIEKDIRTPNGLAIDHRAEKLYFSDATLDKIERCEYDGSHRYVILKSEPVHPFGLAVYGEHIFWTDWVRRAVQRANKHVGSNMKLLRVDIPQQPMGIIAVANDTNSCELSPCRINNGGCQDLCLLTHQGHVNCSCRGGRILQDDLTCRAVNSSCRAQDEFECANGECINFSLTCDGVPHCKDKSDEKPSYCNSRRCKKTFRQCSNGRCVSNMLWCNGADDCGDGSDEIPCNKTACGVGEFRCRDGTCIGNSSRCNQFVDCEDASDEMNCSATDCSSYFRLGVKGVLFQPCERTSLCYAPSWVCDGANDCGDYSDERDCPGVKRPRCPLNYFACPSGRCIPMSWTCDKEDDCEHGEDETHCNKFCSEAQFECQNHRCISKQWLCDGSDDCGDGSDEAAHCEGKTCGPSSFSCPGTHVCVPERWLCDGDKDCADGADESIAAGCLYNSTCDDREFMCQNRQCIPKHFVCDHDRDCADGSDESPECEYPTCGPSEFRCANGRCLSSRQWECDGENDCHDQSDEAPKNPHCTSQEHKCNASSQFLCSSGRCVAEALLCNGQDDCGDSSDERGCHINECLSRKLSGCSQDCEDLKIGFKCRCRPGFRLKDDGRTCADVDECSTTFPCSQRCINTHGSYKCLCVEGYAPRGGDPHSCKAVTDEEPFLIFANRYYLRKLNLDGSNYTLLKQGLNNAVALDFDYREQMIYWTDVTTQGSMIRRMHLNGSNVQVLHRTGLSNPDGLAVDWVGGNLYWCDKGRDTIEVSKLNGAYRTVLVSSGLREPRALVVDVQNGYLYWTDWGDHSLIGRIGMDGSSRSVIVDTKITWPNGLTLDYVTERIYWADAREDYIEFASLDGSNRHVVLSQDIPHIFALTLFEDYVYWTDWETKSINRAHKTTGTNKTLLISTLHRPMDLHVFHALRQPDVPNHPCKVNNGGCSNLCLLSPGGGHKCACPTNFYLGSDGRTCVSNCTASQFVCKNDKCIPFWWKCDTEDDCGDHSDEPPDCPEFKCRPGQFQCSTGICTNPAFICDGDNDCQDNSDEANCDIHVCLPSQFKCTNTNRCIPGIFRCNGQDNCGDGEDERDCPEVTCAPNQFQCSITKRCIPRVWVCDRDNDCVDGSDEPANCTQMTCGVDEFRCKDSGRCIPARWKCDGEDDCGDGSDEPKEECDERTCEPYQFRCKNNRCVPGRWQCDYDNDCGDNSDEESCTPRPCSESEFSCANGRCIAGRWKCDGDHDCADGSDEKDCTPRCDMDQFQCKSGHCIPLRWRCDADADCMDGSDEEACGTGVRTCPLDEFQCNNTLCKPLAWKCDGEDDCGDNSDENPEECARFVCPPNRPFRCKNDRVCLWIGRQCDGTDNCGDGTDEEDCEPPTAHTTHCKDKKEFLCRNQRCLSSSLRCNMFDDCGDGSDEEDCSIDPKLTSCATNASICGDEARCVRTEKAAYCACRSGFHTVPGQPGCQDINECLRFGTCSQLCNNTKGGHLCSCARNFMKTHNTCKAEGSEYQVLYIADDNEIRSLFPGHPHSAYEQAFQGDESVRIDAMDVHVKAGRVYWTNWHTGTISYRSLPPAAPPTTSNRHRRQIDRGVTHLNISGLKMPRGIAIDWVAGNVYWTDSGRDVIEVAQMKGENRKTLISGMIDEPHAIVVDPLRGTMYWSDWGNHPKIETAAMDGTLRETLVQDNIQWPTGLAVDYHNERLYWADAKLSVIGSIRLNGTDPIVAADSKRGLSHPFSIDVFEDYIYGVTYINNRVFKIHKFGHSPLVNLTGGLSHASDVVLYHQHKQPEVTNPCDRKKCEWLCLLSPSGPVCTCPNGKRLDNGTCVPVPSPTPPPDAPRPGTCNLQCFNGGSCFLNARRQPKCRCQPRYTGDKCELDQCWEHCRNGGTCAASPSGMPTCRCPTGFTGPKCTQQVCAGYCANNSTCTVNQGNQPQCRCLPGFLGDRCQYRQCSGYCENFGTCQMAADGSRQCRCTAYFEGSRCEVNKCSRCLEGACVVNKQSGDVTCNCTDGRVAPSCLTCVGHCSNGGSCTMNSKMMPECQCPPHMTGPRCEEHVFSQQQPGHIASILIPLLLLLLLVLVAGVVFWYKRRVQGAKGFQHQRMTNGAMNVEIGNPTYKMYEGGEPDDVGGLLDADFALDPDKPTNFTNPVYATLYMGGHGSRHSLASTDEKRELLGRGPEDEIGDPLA

- IC50 (LRP-1): 25000 to 30000 nM
- Inhibition of ^125I-α2M* binding to cells (acidic pH binding sites [3]; pH 5.5, verapamil and W-5 at 100 μM): most potent inhibitors
Compound: CN1CCN(CCCN2c3ccccc3Sc3ccc(C(F)(F)F)cc32)CC1 [trifluoperazine, reference compound]
- Depletion of cell surface α2M* receptors [1]: ~50%
- Degradation of cell surface-bound ^125I-TGF-β1 or ^125I-α2M* (Mv1Lu cells [2]): completely blocked; also recorded: completely inhibits
- Degradation of cell surface-bound ^125I-α2M* or ^125I-TGF-β1 (MEF cells [4]; MEF cells, pH 7.4): trifluoperazine-inhibitable degradation

- pH of optimal/maximal binding (acidic pH binding sites [9]): 5
- pH of maximal binding (acidic pH binding sites [18]): 5
- pH of maximal binding (acidic pH binding sites [3]): 5
Compound: TGF-β1: human transforming growth factor-β1
- Growth inhibitory response (DNA synthesis) (32D/IR/IRS-2 cells): potent growth inhibitory response
- Inhibition of cell growth (PEA-C11 cells [5]): ~70%
- Inhibition of DNA synthesis (MEF cells [6]): 30-40%
- Effect on DNA synthesis (H1299/vector cells [7]): acted as mitogens or growth stimulators
- Kd (LRP-1/TβR-V): 0.05 to 0.4 nM
- Inhibition of DNA synthesis (Mv1Lu cells [8]; TGF-β1 0.5 pM): ~75%
- Inhibition of DNA synthesis (Mv1Lu cells [8]; TGF-β1 20 pM): 90-100%
- Stimulation of DNA synthesis (PEA-13 cells [10]): ≤ 20%
- Stimulation of cell growth (PEA-13 cells [11]): ≤ 20%
- Inhibition of cell growth (MEF cells [12]): 30-40%
- 32P-labeled phosphorylation of IRS-2 (IRS-2 [13]; TGF-β1 alone): capable of stimulating
- Dephosphorylation of IRS-2 (IRS-2 [13]; TGF-β1 up to 400 pM): did not induce dephosphorylation
- Effect on cell growth (H1299/LRP cells [14]): inhibited
- Inhibition of DNA synthesis (PEA-C11 cells [15]): ~70%
- Effect on DNA synthesis (H1299/LRP cells [16]): inhibited
- Inhibition of DNA synthesis [17]: minimally or not at all
- Inhibition of cell growth (Mv1Lu cells [19]): 90-100%
- Induction of specific dephosphorylation (mobility change) of 32P-labeled IRS-2 (IRS-2 [20]): inability
- Growth inhibitory response (DNA synthesis) (32D/IRS-1 cells): potent growth inhibitory response
- Effect on cell growth (H1299/vector cells [21]): acted as mitogens or growth stimulators

Compound: α2M*: α2M activated by methylamine
- ^125I-TGF-β1 binding to purified TβR-V ([22]; 0.1 nM 125I-TGF-β1, […] 0° C.): blocked
- ^125I-IGFBP-3 binding to purified TβR-V ([22]; 10 nM 125I-IGFBP-3, […] 0° C.): did not inhibit
- Kd (LRP-1/TβR-V): ~0.075 nM
- Number of binding sites (Scatchard plot) (acidic pH binding sites [9]; pH 5): ~1×10^6 sites/cell
- Saturating concentration of binding (acidic pH binding sites [9]; pH 5): ~120 nM
- Kd (acidic pH binding sites [9]; pH 5, read-out: Apparent Kd (Scatchard plot)): ~51 nM
- pH of optimal/maximal binding (acidic pH binding sites [9]): 5
- Cell surface-bound ligand internalized and degraded (PEA-13 cells [23]): ~70%
- pH of maximal binding (acidic pH binding sites [18]): 5
- IC50 (acidic pH binding sites [18]; acidic pH, read-out: IC50, inhibition of ^125I-α2M* binding): ~120 nM
- pH of maximal binding (acidic pH binding sites [3]): 5
- Cell surface-bound ligand internalized and degraded (MEF cells [4]; pH 6.0, 1 hr at 37° C.): ~70%
- Cell surface-bound ligand internalized and degraded (MEF cells [4]; pH 7.4, 1 hr): more than 90%
